Reference: patent US9586959B2, “Substituted tricyclic heterocycles as histamine 4 receptor inhibitors” (C&C RESEARCH LABORATORIES, priority 2011, dated 2017)
Converted amounts (≈) assume the structure as drawn.

How the values were obtained:
[1] = target: human histamine 4 receptor (hH4R) (Homo sapiens (Human), UniProt Q9H3N8); test: Binding affinity of human histamine 4 receptor (hH4R), [3H] labeled histamine displacement; conditions: hH4R-overexpressed cell membrane, [3H] histamine
Protocol: 20 μL of the prepared compound solution was transferred to each well of a 96-well plate, and then 20 μL of 100 μM histamine diluted with analysis buffer solution and 1% DMSO were transferred to each well to calculate non-specific binding and total binding degree. 25 μg of human histamine 4 receptor-overexpressed cell membrane (PerkinElmer) was diluted into 160 μL of analysis buffer solution and that was transferred to each well. [^3H] labeled histamine (PerkinElmer) was diluted into 1 μM concentration, 20 μL was allocated in each well, and then it was kept in a 27° C. incubator for 30 minutes. After the reaction, 200 μL of the mixture was transferred to a glass fiber plate in which 0.5% polyethylene amine was presoaked, and then non-binding [^3H] labeled histamine was removed in vacuum. After 4 times washing with 200 μL of washing buffer solution (50 mM tris-HCl, pH 7.4), the plate was dried in a 37° C. oven for 18 hours. 100 μL of betascint cocktail solution was added to each well, and after 1 hour CPM (count per minute) value of [^3H] labeled histamine was measured by using Wallac beta-counter TriLux.

[2] = target: human histamine 3 receptor (hH3R) (Homo sapiens (Human), UniProt Q9Y5N1); test: Binding affinity of human histamine 3 receptor (hH3R), [3H] labeled N-α-methylhistamine displacement; conditions: hH3R-overexpressed cell membrane, [3H] N-α-methylhistamine
Protocol: 10 μL of the prepared compound solution was allocated in each well of a 96-well plate, and then 10 μL of 200 μM (R)(−)-α-methylhistamine (RaMH) diluted with analysis buffer and 1% of DMSO were transferred to each well to calculate non-specific binding and total binding degree. 15 μg of human histamine 3 receptor-overexpressed cell membrane (PerkinElmer) was diluted with 180 μL of analysis buffer solution (50 mM tris-HCl pH 7.4, 5 mM MgCl2), and that was transferred to each well. [^3H] labeled Na-methylhistamine (PerkinElmer) was diluted into […], 10 μL of that was added to each well, and then it was kept in a 27° C. incubator for 30 minutes. After the reaction, 200 μL of the mixture was transferred to a glass fiber plate in which 0.5% polyethylene amine was presoaked, and then non-binding [^3H] labeled Na-methylhistamine was removed in vacuum. After 5 times washing with 200 μL of washing buffer solution (50 mM tris-HCl, pH 7.4), the plate was dried in a 37° C. oven for 18 hours. 100 μL of betascint cocktail solution was added to each well, and after 1 hour CPM of [^3H] labeled N-α-methylhistamine was measured by using Wallac beta-counter TriLux. The binding affinity (IC50) of the human histamine 3 receptor for the present invention was analyzed by an Excel program, and the results of analysis are shown in Table 2.

[3] = Solubility in artificial gastrointestinal tract solution; type: physicochemical; conditions: artificial gastrointestinal tract solution, thermodynamic from solid; for solubility at 1 h: fassgf or other biorelevant, first solution pH 1.2, 2 mg/mL sample, 37° C. 1 hour; for solubility at 2 h: fassif, second solution pH 6.5, 2 mg/mL sample, 37° C. 2 hours
Protocol: 2.0 g of sodium chloride was added in 7.0 mL of 37% of hydrochloric acid and water to make the total volume of 1 L. The pH was adjusted to exactly 1.2 with 1N sodium hydroxide or 1N hydrochloric acid. A small amount (20 mL) of this solution was taken and added in 25 μL of triton X-100 to make the total volume of 25 mL.
0.348 g sodium hydroxide, 3.438 g NaH2PO4, 6.186 g sodium chloride and water were added to make the total volume of 1 L. The pH was adjusted to exactly 6.5 with 1N sodium hydroxide or 1N hydrochloric acid. A small amount (20 mL) of this solution was taken and 41.25 mg of sodium taurocholate hydrate and 25 μL of 750 mM lecithin dissolved in ethanol was added to make the total volume of 25 mL.
The heated test sample solutions were filtered to remove undissolved compounds therein. Finally, 100 μL of the completely compound-dissolved solution was sampled and 100 μL of CH3CN was added thereto to make the test sample solution. For each analysis of the test sample solution, the solubility was measured by using liquid chromatography.

Sequence of human histamine 4 receptor (hH4R) (Q9H3N8 whole entry): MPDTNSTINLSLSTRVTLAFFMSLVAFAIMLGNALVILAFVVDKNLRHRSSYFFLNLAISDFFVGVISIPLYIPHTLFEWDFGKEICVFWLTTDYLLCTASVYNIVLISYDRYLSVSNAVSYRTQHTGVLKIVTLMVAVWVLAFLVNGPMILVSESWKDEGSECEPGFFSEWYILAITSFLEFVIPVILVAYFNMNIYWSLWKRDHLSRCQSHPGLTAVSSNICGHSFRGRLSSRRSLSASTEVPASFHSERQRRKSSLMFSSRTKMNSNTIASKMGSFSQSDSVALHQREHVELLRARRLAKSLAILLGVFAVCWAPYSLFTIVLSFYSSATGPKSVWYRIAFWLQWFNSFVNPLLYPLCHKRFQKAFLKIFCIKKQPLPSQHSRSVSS
Sequence of human histamine 3 receptor (hH3R) (Q9Y5N1 whole entry): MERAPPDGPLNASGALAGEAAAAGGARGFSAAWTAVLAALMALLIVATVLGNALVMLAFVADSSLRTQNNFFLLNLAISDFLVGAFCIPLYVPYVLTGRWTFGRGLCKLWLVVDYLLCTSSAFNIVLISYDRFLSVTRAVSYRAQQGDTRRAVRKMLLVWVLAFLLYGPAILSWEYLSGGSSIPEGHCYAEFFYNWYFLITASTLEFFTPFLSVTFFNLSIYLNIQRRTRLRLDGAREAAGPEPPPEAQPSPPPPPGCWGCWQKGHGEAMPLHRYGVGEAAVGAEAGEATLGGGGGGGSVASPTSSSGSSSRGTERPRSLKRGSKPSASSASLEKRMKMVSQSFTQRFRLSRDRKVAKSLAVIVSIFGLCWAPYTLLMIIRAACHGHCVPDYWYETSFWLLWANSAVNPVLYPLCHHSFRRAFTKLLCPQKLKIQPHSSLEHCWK

CNC1CN(c2nc3nc(C#N)c(Cl)cc3n3cnnc23)C1 [Compound 28, 8-Chloro-4-(3-(methylamino)azetidin-1-yl)pyrido[2,3-e][1,2,4]triazolo[4,3-a]pyrazin-7-carbonitrile]
IC50 [1]: 490 nM
IC50 [2]: > 100000 nM

Cc1cnc2nc(N3CCN(C)CC3)c3nncn3c2c1 [Compound 2, 8-Methyl-4-(4-methylpiperazin-1-yl)pyrido[2,3-e][1,2,4]triazolo[4,3-a]pyrazine]
IC50 [1]: 506 nM
IC50 [2]: > 100000 nM

Clc1cnc2nc(N3CCNCC3)c3nccn3c2c1 [Compound 47, 8-Chloro-4-(piperazin-1-yl)imidazo[1,2-a]pyrido[2,3-e]pyrazine]
IC50 [1]: 618 nM

CNC1CN(c2nc3ncc(Cl)c(Cl)c3n3cnnc23)C1 [Compound 67, 1-(8,9-Dichloropyrido[2,3-e][1,2,4]triazolo[4,3-a]pyrazin-4-yl)-N-methylazetidin-3-amine]
IC50 [1]: 314 nM
IC50 [2]: > 100000 nM

C=Cc1cnc2nc(N3CC(NC)C3)c3nncn3c2c1 [Compound 55, N-Methyl-1-(8-vinylpyrido[2,3-e][1,2,4]triazolo[4,3-a]pyrazin-4-yl)azetidin-3-amine]
IC50 [1]: 260 nM
IC50 [2]: > 100000 nM

CNC1CN(c2nc3cnc(Cl)cc3n3cnnc23)C1 [Compound 117, 1-(8-chloropyrido[3,4-e][1,2,4]triazolo[4,3-a]pyrazin-4-yl)-N-methylazetidin-3-amine]
IC50 [1]: 210 nM
IC50 [2]: > 100000 nM

CN1CCN(c2nc3ncc(Cl)cc3n3nnnc23)CC1 [Compound 94, 8-Chloro-4-(4-methylpiperazin-1-yl)pyrido[2,3-e]tetrazolo[1,5-a]pyrazine]
IC50 [1]: 62 nM

CNC1CN(c2nc3ccc(Cl)nc3n3cnnc23)C1 [Compound 116, 1-(2-chloropyrido[3,2-e][1,2,4]triazolo[4,3-a]pyrazin-6-yl)-N-methylazetidin-3-amine]
IC50 [1]: 240 nM
IC50 [2]: > 100000 nM
solubility at 1 h [3]: 1940 µg/mL (≈ 6.7 mM)
solubility at 2 h [3]: 960 µg/mL (≈ 3.31 mM)

Cc1nc2nc(N3CCN(C)CC3)c3nncn3c2cc1Br [Compound 100, 8-bromo-7-methyl-4-(4-methylpiperazin-1-yl)pyrido[2,3-e][1,2,4]triazolo[4,3-a]pyrazine]
IC50 [1]: 231 nM
IC50 [2]: > 100000 nM

Brc1cnc2nc(N3CCN4CCCC4C3)c3nncn3c2c1 (stereo not shown) [Compound 74, 8-Bromo-4-(hexahydropyrrolo[1,2-a]pyrazin-2(1H)-yl)pyrido[2,3-e][1,2,4]triazolo[4,3-a]pyrazine]
IC50 [1]: 60 nM
solubility at 1 h [3]: 1530 µg/mL (≈ 4.08 mM)
solubility at 2 h [3]: 646 µg/mL (≈ 1.73 mM)

COc1nc2nc(N3CCN(C)CC3)c3nncn3c2cc1Cl [Compound 60, 8-Chloro-7-methoxy-4-(4-methylpiperazin-1-yl)pyrido[2,3-e][1,2,4]triazolo[4,3-a]pyrazine]
IC50 [1]: 610 nM
IC50 [2]: > 100000 nM

CCOc1nc2nc(N3CCN(C)CC3)c3nncn3c2cc1Cl [Compound 23, 8-Chloro-7-ethoxy-4-(4-methylpiperazin-1-yl)pyrido[2,3-e][1,2,4]triazolo[4,3-a]pyrazine]
IC50 [1]: 140 nM
IC50 [2]: > 100000 nM

CN1CCN(c2nc3ncc(I)cc3n3cnnc23)CC1 [Compound 49, 8-Iodo-4-(4-methylpiperazin-1-yl)pyrido[2,3-e][1,2,4]triazolo[4,3-a]pyrazine]
IC50 [1]: 34 nM
IC50 [2]: > 100000 nM

Cc1nc2c(N3CCN(C)CC3)nc3ncc(Cl)cc3n2n1 [Compound 98, 8-Chloro-2-methyl-4-(4-methylpiperazin-1-yl)pyrido[2,3-e][1,2,4]triazolo[1,5-a]pyrazine]
IC50 [1]: 11 nM
solubility at 1 h [3]: 1700 µg/mL (≈ 5.36 mM)
solubility at 2 h [3]: 1090 µg/mL (≈ 3.44 mM)

CN1CCN(c2nc3ncc(Br)cc3n3nnnc23)CC1 [Compound 96, 8-Bromo-4-(4-methylpiperazin-1-yl)pyrido[2,3-e]tetrazolo[1,5-a]pyrazine]
IC50 [1]: 28 nM

CN1CCN(c2nc3ncc(Cl)cc3n3ccnc23)CC1 [Compound 46, 8-Chloro-4-(4-methylpiperazin-1-yl)imidazo[1,2-a]pyrido[2,3-e]pyrazine]
IC50 [1]: 154 nM
solubility at 1 h [3]: 1910 µg/mL (≈ 6.32 mM)
solubility at 2 h [3]: 1100 µg/mL (≈ 3.64 mM)

Ic1cnc2nc(N3CCN4CCCC4C3)c3nncn3c2c1 (stereo not shown) [Compound 75, 4-(Hexahydropyrrolo[1,2-a]pyrazin-2(1H)-yl)-8-iodopyrido[2,3-e][1,2,4]triazolo[4,3-a]pyrazine]
IC50 [1]: 64 nM
solubility at 1 h [3]: 2000 µg/mL (≈ 4.76 mM)
solubility at 2 h [3]: 723 µg/mL (≈ 1.72 mM)

CNC1CN(c2nc3ncc(C(F)F)cc3n3cnnc23)C1 [Compound 51, 1-(8-(Difluoromethyl)pyrido[2,3-e][1,2,4]triazolo[4,3-a]pyrazin-4-yl)-N-methylazetidin-3-amine]
IC50 [1]: 710 nM
IC50 [2]: > 100000 nM

CN1CCN(c2nc3ncc(Cl)cc3c3cn(C)nc23)CC1 [Compound 43, 8-Chloro-2-methyl-4-(4-methylpiperazin-1-yl)-2H-pyrazolo[3,4-c][1,8]naphthylidine]
IC50 [1]: 70 nM
IC50 [2]: 97000 nM

Cc1c(Br)cnc2nc(N3CCN(C)CC3)c3nncn3c12 [Compound 66, 8-Bromo-9-methyl-4-(4-methylpiperazin-1-yl)pyrido[2,3-e][1,2,4]triazolo[4,3-a]pyrazine]
IC50 [1]: 300 nM

CN1CCN(c2nc3ncc(Cl)cc3c3ncnn23)CC1 [Compound 35, 9-Chloro-5-(4-methylpiperazin-1-yl)pyrido[3,2-e][1,2,4]triazolo[1,5-c]pyrimidine]
IC50 [1]: 170 nM

CNC1(C)CN(c2nc3ncc(Br)cc3n3cnnc23)C1 [Compound 73, 1-(8-Bromopyrido[2,3-e][1,2,4]triazolo[4,3-a]pyrazin-4-yl)-N,3-dimethylazetidin-3-amine]
IC50 [2]: > 100000 nM

CNC1CN(c2nc3ncc(Cl)cc3c3oc(C)nc23)C1 [Compound 91, 1-(8-Chloro-2-methyloxazolo[4,5-c][1,8]naphthylidine-4-yl)-N-methylazetidin-3-amine]
IC50 [2]: > 100000 nM
solubility at 1 h [3]: 1840 µg/mL (≈ 6.04 mM)
solubility at 2 h [3]: 1940 µg/mL (≈ 6.4 mM)

COCc1nc2c3cc(Cl)cnc3nc(N3CCN(C)CC3)n2n1 [Compound 40, 9-Chloro-2-(methoxymethyl)-5-(4-methylpiperazin-1-yl)pyrido[3,2-e][1,2,4]triazolo[1,5-c]pyrimidine]
IC50 [2]: > 100000 nM

CN1CC2CN(c3nc4ncc(Br)cc4n4cnnc34)CC2C1 (stereo not shown) [Compound 71, 8-Bromo-4-(5-methylhexahydropyrrolo[3,4-c]pyrrole-2(1H)-yl)pyrido[2,3-e][1,2,4]triazolo[4,3-a]pyrazine]
IC50 [2]: > 100000 nM

CCOc1nc2nc(N3CCNCC3)c3nncn3c2cc1Cl [Compound 63, 8-Chloro-7-ethoxy-4-(piperazin-1-yl)pyrido[2,3-e][1,2,4]triazolo[4,3-a]pyrazine]
IC50 [1]: 580 nM
IC50 [2]: > 100000 nM

CN1CCN(c2nc3nc(OCC(F)(F)F)c(Cl)cc3n3cnnc23)CC1 [Compound 64, 8-Chloro-4-(4-methylpiperazin-1-yl)-7-(2,2,2-trifluoroethoxy)pyrido[2,3-e][1,2,4]triazolo[4,3-a]pyrazine]
IC50 [1]: 240 nM
IC50 [2]: > 100000 nM

Cc1nc2c(N3CC(N(C)C(=O)OC(C)(C)C)C3)nc3ncc(Cl)cc3c2o1 [Compound 90, tert-Butyl (1-(8-chloro-2-methyloxazolo[4,5-c][1,8]naphthylidine-4-yl)azetidin-3-yl)(methyl)carbamate]
IC50 [2]: > 100000 nM

N[C@@H]1CCN(c2nc3ncc(Cl)cc3n3cnnc23)C1 [Compound 30, (R)-1-(8-chloropyrido[2,3-e][1,2,4]triazolo[4,3-a]pyrazin-4-yl)pyrrolidin-3-amine]
IC50 [2]: > 100000 nM
